± gives the standard deviation of the averaged measurements.
Columns and labels:
Experiment in all cases: level (log10 ratio to DMSO vehicle control); higher = higher biomarker level / cell amount than vehicle control
Details in all cases: in DMSO
Hexafluoroglutaric acid = compound: O=C(O)C(F)(F)C(F)(F)C(F)(F)C(=O)O [Hexafluoroglutaric acid]
Experimental: (§1)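 BioMAP Diversity Plus panel of 12 human primary cell co-culture systems (3C, 4H, LPS, SAg, BT, BF4T, BE3C, CASM3C, HDF3CGF, KF3CT, MyoF, Mphg). Compounds were added 1 h before stimulation and left for 24 h (MyoF 48 h; BT 72 h for soluble read-outs or 6 d for IgG). Biomarkers were read by ELISA, cytotoxicity by SRB, PBMC viability and proliferation by Alamar Blue. Each well value was divided by the mean of 8 DMSO control wells on the same plate and log10 transformed; duplicate blinded samples were tested at 4 concentrations.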

[1] = compound: C=CC(=O)OCCC(F)(F)C(F)(F)C(F)(F)C(F)(F)F [2-(Perfluorobutyl)ethyl acrylate]
Experimental: as §1

1H,1H-Heptafluorobutanol = compound: OCC(F)(F)C(F)(F)C(F)(F)F [1H,1H-Heptafluorobutanol]
Experimental: as §1

[2] = compound: O=C(O)CCC(F)(F)C(F)(F)C(F)(F)C(F)(F)C(F)(F)F [2H,2H,3H,3H-Perfluorooctanoic acid]
Experimental: as §1

[3] = compound: O=C(O)C(F)(F)C(F)(F)C(F)(F)C(F)(F)C(F)(F)C(F)(F)C(F)(F)C(F)(F)Cl [9-Chloro-perfluorononanoic acid]
Experimental: as §1

[4] = compound: CC(C)(C)C(=O)CC(=O)C(F)(F)C(F)(F)C(F)(F)F [(Heptafluorobutanoyl)pivaloylmethane]
Experimental: as §1

Perfluorooctanamide = compound: NC(=O)C(F)(F)C(F)(F)C(F)(F)C(F)(F)C(F)(F)C(F)(F)C(F)(F)F [Perfluorooctanamide]
Experimental: as §1

Row | Test System | level (log10) (Hexafluoroglutaric acid; 6700 nM) | level (log10) (Hexafluoroglutaric acid; 20000 nM) | level (log10) (Hexafluoroglutaric acid; 60000 nM) | level (log10) ([1]; 6700 nM) | level (log10) ([1]; 20000 nM) | level (log10) ([1]; 60000 nM) | level (log10) (1H,1H-Heptafluorobutanol; 6700 nM) | level (log10) (1H,1H-Heptafluorobutanol; 20000 nM) | level (log10) (1H,1H-Heptafluorobutanol; 60000 nM) | level (log10) ([2]; 6700 nM) | level (log10) ([2]; 20000 nM) | level (log10) ([2]; 60000 nM) | level (log10) ([3]; 6700 nM) | level (log10) ([3]; 20000 nM) | level (log10) ([4]; 6700 nM) | level (log10) ([4]; 20000 nM) | level (log10) ([4]; 60000 nM) | level (log10) (Perfluorooctanamide; 6700 nM) | level (log10) (Perfluorooctanamide; 20000 nM) | level (log10) (Perfluorooctanamide; 60000 nM)
1 | HDF3CGF:CD54/ICAM-1 | 0.001 ± 0.018 | 0.0035 ± 0.013 | 0.004 ± 0.016 | -0.028 ± 0.025 | -0.035 ± 0.025 | -0.131 ± 0.059 | -0.008 ± 0.0042 | 0.0005 ± 0.0021 | 0.0045 ± 0.0092 | -0.0095 ± 0.0064 | -0.0215 ± 0.019 | -0.036 ± 0.023 | -0.077 ± 0.017 | -0.112 ± 0.014 | 0 ± 0.0057 | -0.0075 ± 0.013 | 0.0065 ± 0.00071 | -0.009 | 0.002 ± 0.0085 | -0.02 ± 0.016
2 | MyoF:CD106/VCAM-1 | -0.0145 ± 0.021 | -0.023 ± 0.0099 | -0.006 ± 0.0014 | -0.019 ± 0.0085 | -0.044 ± 0.027 | -0.101 ± 0.045 | 0.0025 ± 0.022 | 0.0025 ± 0.011 | 0.008 ± 0.0014 | -0.0015 ± 0.019 | -0.0115 ± 0.021 | 0.0005 ± 0.012 | -0.008 ± 0.025 | -0.101 ± 0.023 | -0.011 ± 0.035 | -0.0065 ± 0.028 | 0.005 ± 0.0085 | -0.0115 ± 0.015 | 0.014 ± 0.0014 | -0.0185 ± 0.011
3 | lMphg:CXCL8/IL-8 | 0.014 ± 0.0042 | 0.044 ± 0.072 | -0.0185 ± 0.0021 | 0.013 ± 0.014 | 0.0045 ± 0.0021 | 0.0055 ± 0.0078 | 0.003 ± 0.055 | 0.0295 ± 0.036 | 0.0415 ± 0.021 | -0.017 ± 0.023 | 0.066 ± 0.04 | 0.115 ± 0.018 | -0.0145 ± 0.0078 | 0.0115 ± 0.025 | 0.002 ± 0.02 | 0.006 ± 0.034 | 0.014 ± 0.064 | 0.013 ± 0.028 | 0.0285 ± 0.012 | 0.031 ± 0.042
4 | CASM3C:CD87/uPAR | -0.001 ± 0.014 | -0.0185 ± 0.033 | -0.0075 ± 0.0035 | -0.006 ± 0.024 | -0.027 ± 0.018 | -0.023 ± 0.0042 | -0.0045 ± 0.026 | -0.013 ± 0.016 | 0.015 ± 0.011 | -0.008 ± 0.013 | -0.011 ± 0.0071 | -0.0305 ± 0.0092 | -0.002 | 0.02 ± 0.0071 | 0.003 ± 0.02 | -0.0235 ± 0.0064 | -0.014 ± 0.023 | -0.009 ± 0.0014 | -0.001 ± 0.024 | 0.0045 ± 0.0092
5 | CASM3C:CD106/VCAM-1 | -0.0105 ± 0.03 | -0.0125 ± 0.036 | 0.012 ± 0.011 | -0.0175 ± 0.023 | -0.0475 ± 0.0078 | -0.138 ± 0.016 | 0.0035 ± 0.033 | 0.0065 ± 0.012 | -0.0015 ± 0.0092 | 0.0025 ± 0.019 | 0.0115 ± 0.044 | 0.01 ± 0.018 | -0.029 ± 0.0014 | -0.027 ± 0.016 | -0.006 ± 0.014 | -0.004 ± 0.021 | -0.002 ± 0.03 | -0.0245 ± 0.005 | -0.014 ± 0.028 | -0.004 ± 0.027
6 | lMphg:SRB-Mphg | -0.0075 ± 0.019 | -0.0055 ± 0.005 | 0.0075 ± 0.022 | 0.012 ± 0.011 | 0.0075 ± 0.016 | -0.006 ± 0.021 | 0.005 ± 0.0028 | -0.009 ± 0.0042 | 0.006 ± 0.0099 | 0.0115 ± 0.0035 | 0.0065 ± 0.015 | 0.007 ± 0.017 | 0.01 ± 0.0042 | 0.0055 ± 0.018 | -0.0025 ± 0.0078 | -0.0125 ± 0.012 | 0.0035 ± 0.019 | -0.0145 ± 0.021 | -0.01 ± 0.0071 | -0.016 ± 0.0057
7 | lMphg:CCL3/MIP-1alpha | -0.0025 ± 0.0078 | 0.0125 ± 0.015 | -0.024 ± 0.052 | -0.0105 ± 0.0064 | -0.0115 ± 0.029 | 0.021 ± 0.013 | 0.0015 ± 0.019 | -0.003 ± 0.037 | -0.0035 ± 0.0021 | 0.032 ± 0.052 | 0.0625 ± 0.081 | 0.0765 ± 0.053 | 0.0205 ± 0.029 | 0.0045 ± 0.046 | -0.011 ± 0.021 | -0.0185 ± 0.013 | -0.067 ± 0.11 | -0.0155 ± 0.0064 | -0.021 ± 0.017 | -0.028 ± 0.024
8 | CASM3C:CXCL8/IL-8 | -0.002 ± 0.017 | -0.016 ± 0.014 | 0.0075 ± 0.0064 | -0.0045 ± 0.0064 | -0.009 ± 0.0014 | -0.028 ± 0.014 | 0.007 ± 0.0099 | 0.0045 ± 0.021 | 0.014 ± 0.04 | 0.0055 ± 0.018 | -0.0055 ± 0.0021 | 0.0175 ± 0.00071 | 0.0045 ± 0.00071 | 0.0175 ± 0.016 | -0.006 ± 0.0042 | -0.018 ± 0.0028 | -0.0045 ± 0.025 | 0.013 ± 0.025 | 0.013 ± 0.016 | 0.044 ± 0.014
9 | MyoF:SRB | 0.0015 ± 0.00071 | -0.002 ± 0.0085 | -0.0045 ± 0.0092 | -0.001 ± 0.0099 | -0.004 ± 0.011 | -0.0085 ± 0.00071 | 0.0015 ± 0.00071 | -0.004 ± 0.0028 | -0.004 ± 0.0057 | -0.002 ± 0.0057 | -0.0035 ± 0.0064 | -0.0065 ± 0.015 | -0.004 | -0.0605 ± 0.005 | -0.0015 ± 0.0064 | -0.0085 ± 0.012 | -0.002 ± 0.0057 | -0.006 ± 0.0042 | 0.0045 ± 0.012 | -0.0055 ± 0.011
10 | KF3CT:CCL2/MCP-1 | -0.0255 ± 0.04 | -0.0325 ± 0.067 | -0.0245 ± 0.0021 | -0.036 ± 0.0099 | -0.0515 ± 0.0035 | -0.028 ± 0.086 | 0.0035 ± 0.005 | 0.006 ± 0.0042 | 0.0235 ± 0.015 | -0.026 | 0.0135 ± 0.016 | -0.0235 ± 0.069 | 0.004 ± 0.023 | 0.036 ± 0.035 | 0.0025 ± 0.005 | 0.035 ± 0.0085 | 0.0645 ± 0.013 | -0.011 ± 0.017 | -0.034 ± 0.031 | -0.091 ± 0.0028
11 | CASM3C:PAI-I | -0.0015 ± 0.015 | -0.0005 ± 0.0064 | 0.0075 ± 0.0064 | 0.0105 ± 0.021 | -0.0035 ± 0.011 | 0 ± 0.013 | 0.0015 ± 0.0092 | -0.0045 ± 0.00071 | 0.009 ± 0.0042 | -0.0015 ± 0.013 | -0.0045 ± 0.019 | -0.012 ± 0.0099 | -0.002 ± 0.0071 | 0.0065 ± 0.0078 | -0.004 ± 0.0028 | -0.0035 ± 0.0064 | 0.003 ± 0.0099 | -0.0015 ± 0.0064 | 0.004 ± 0.0057 | -0.0015 ± 0.016
